The target in the assay is T1, SIRT1 (Homo sapiens, UniProt Q96EB6).
T1 sequence (Q96EB6 1-747): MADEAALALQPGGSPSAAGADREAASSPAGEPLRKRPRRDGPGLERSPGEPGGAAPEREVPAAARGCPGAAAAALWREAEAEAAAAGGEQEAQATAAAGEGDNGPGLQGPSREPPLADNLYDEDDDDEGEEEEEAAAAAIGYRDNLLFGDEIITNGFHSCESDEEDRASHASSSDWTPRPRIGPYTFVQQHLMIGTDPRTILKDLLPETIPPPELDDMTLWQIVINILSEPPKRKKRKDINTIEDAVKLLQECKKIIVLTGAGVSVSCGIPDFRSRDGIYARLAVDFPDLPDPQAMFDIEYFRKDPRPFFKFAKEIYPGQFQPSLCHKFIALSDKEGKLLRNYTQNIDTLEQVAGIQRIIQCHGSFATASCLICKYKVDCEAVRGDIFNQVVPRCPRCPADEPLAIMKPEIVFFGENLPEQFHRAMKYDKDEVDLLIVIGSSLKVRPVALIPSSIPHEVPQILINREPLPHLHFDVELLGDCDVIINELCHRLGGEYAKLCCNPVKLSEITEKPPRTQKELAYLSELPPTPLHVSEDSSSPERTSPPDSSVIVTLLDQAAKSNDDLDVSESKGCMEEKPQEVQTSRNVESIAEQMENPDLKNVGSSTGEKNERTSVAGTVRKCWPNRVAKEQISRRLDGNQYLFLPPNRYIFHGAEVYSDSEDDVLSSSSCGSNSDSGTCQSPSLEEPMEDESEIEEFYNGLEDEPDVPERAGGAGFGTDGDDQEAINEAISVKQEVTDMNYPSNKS
The assay can be described thus: Mass spectrometry based assay to identify modulators of SIRT1 activity (deacetylation of p53-based acetylated peptide). It is filed as biochemical. Particulars: 10 nM SIRT1, 0.5 μM peptide substrate, 120 μM βNAD+, 25 minutes at 25° C.; for EC1.5 μM: SIRT1 activation.

With `Cn1c(-c2ccccc2OC(F)(F)F)nc2c(NC(=O)c3cnccn3)cccc2c1=O` [Compound 274], the “% Fold Act. (percent maximum fold activation)” value is recorded as “A (Fold activation>200%)” and the “EC1.5 μM” value is recorded as “A (EC1.5<1.0 μM)”.

Turning to `Cn1c(-c2ccc(CN3CCCC3)cc2)nc2c(C(=O)Nc3ccccn3)cccc2c1=O` [Compound 275, 3-methyl-4-oxo-N-(pyridin-2-yl)-2-(4-(pyrrolidin-1-ylmethyl)phenyl)-3,4-dihydroquinazoline-8-carboxamide], the “% Fold Act. (percent maximum fold activation)” value was “B (Fold Activation<200%)” and the “EC1.5 μM” value was “C (EC1.5>25 μM)”.

`Cn1c(-c2cccc(CN3CCCC3)c2)nc2c(C(=O)Nc3ccccn3)cccc2c1=O` [Compound 276]: the “% Fold Act. (percent maximum fold activation)” value is recorded as “B (Fold Activation<200%)” and the “EC1.5 μM” value is recorded as “B (EC1.5 1-25 μM)”.

On to `Cn1c(-c2ccccn2)nc2c(NC(=O)c3cnccn3)cccc2c1=O` [Compound 277], for which the “% Fold Act. (percent maximum fold activation)” value is “B (Fold Activation<200%)” and the “EC1.5 μM” value is “C (EC1.5>25 μM)”.

For the compound `Cn1c(-c2cccnc2)nc2c(NC(=O)c3cnccn3)cccc2c1=O` [Compound 278], the “% Fold Act. (percent maximum fold activation)” value was “B (Fold Activation<200%)” and the “EC1.5 μM” value is “B (EC1.5 1-25 μM)”.

With `Cn1c(-c2ccncc2)nc2c(NC(=O)c3cnccn3)cccc2c1=O` [Compound 279], the “% Fold Act. (percent maximum fold activation)” value is “B (Fold Activation<200%)” and the “EC1.5 μM” value is “C (EC1.5>25 μM)”.

On to `Cn1c(-c2ccncn2)nc2c(NC(=O)c3cnccn3)cccc2c1=O` [Compound 280], for which the “% Fold Act. (percent maximum fold activation)” value was “B (Fold Activation<200%)” and the “EC1.5 μM” value was “C (EC1.5>25 μM)”.

On to `Cn1c(-c2cnccn2)nc2c(NC(=O)c3cnccn3)cccc2c1=O` [Compound 281], for which the “% Fold Act. (percent maximum fold activation)” value is “B (Fold Activation<200%)” and the “EC1.5 μM” value is reported as “C (EC1.5>25 μM)”.

`Cn1c(-c2ncccn2)nc2c(NC(=O)c3cnccn3)cccc2c1=O` [Compound 282]: the “% Fold Act. (percent maximum fold activation)” value is “B (Fold Activation<200%)” and the “EC1.5 μM” value is recorded as “C (EC1.5>25 μM)”.

Regarding `Cn1c(-c2cscn2)nc2c(NC(=O)c3cnccn3)cccc2c1=O` [Compound 283], the “% Fold Act. (percent maximum fold activation)” value is “B (Fold Activation<200%)” and the “EC1.5 μM” value is “C (EC1.5>25 μM)”.

With `Cc1ncsc1-c1nc2c(NC(=O)c3cnccn3)cccc2c(=O)n1C` [Compound 284], the “% Fold Act. (percent maximum fold activation)” value is reported as “A (Fold activation>200%)” and the “EC1.5 μM” value is “B (EC1.5 1-25 μM)”.

Regarding `Cn1cncc1-c1nc2c(NC(=O)c3cnccn3)cccc2c(=O)n1C` [Compound 285], the “% Fold Act. (percent maximum fold activation)” value is listed as “B (Fold Activation<200%)” and the “EC1.5 μM” value is given as “B (EC1.5 1-25 μM)”.

Regarding `Cn1c(-c2cccc(C(F)(F)F)c2)nc2c(C(=O)Nc3cccc(OCC(O)CO)c3)cccc2c1=O` (centres unmarked) [Compound 286], the “% Fold Act. (percent maximum fold activation)” value is on record as “A (Fold activation>200%)” and the “EC1.5 μM” value is on record as “A (EC1.5<1.0 μM)”.

As for `Cc1nc(C)c(-c2nc3c(NC(=O)c4cnccn4)cccc3c(=O)n2C)s1` [Compound 287, N-(2-(2,4-dimethylthiazol-5-yl)-3-methyl-4-oxo-3,4-dihydroquinazolin-8-yl)pyrazine-2-carboxamide], the “% Fold Act. (percent maximum fold activation)” value is reported as “A (Fold activation>200%)” and the “EC1.5 μM” value is reported as “B (EC1.5 1-25 μM)”.

Take `Cn1cnc(-c2nc3c(NC(=O)c4cnccn4)cccc3c(=O)n2C)c1` [Compound 288]: the “% Fold Act. (percent maximum fold activation)” value is “B (Fold Activation<200%)” and the “EC1.5 μM” value is listed as “C (EC1.5>25 μM)”.

Regarding `Cn1ccnc1-c1nc2c(NC(=O)c3cnccn3)cccc2c(=O)n1C` [Compound 289], the “% Fold Act. (percent maximum fold activation)” value is “B (Fold Activation<200%)” and the “EC1.5 μM” value is listed as “C (EC1.5>25 μM)”.

Regarding `Cn1ccc(-c2nc3c(NC(=O)c4cnccn4)cccc3c(=O)n2C)n1` [Compound 290], the “% Fold Act. (percent maximum fold activation)” value is recorded as “B (Fold Activation<200%)” and the “EC1.5 μM” value was “C (EC1.5>25 μM)”.

For `Cn1cc(-c2nc3c(NC(=O)c4cnccn4)cccc3c(=O)n2C)cn1` [Compound 291], the “% Fold Act. (percent maximum fold activation)” value is “B (Fold Activation<200%)” and the “EC1.5 μM” value is reported as “C (EC1.5>25 μM)”.

`Cn1nccc1-c1nc2c(NC(=O)c3cnccn3)cccc2c(=O)n1C` [Compound 292]: the “% Fold Act. (percent maximum fold activation)” value is “B (Fold Activation<200%)” and the “EC1.5 μM” value is “C (EC1.5>25 μM)”.

Turning to `Cn1c(-c2cccc(C(F)(F)F)c2)nc2c(C(=O)Nc3cccc(N4CCOCC4)n3)cccc2c1=O` [Compound 293], the “% Fold Act. (percent maximum fold activation)” value is given as “A (Fold activation>200%)” and the “EC1.5 μM” value is on record as “A (EC1.5<1.0 μM)”.

Turning to `CCc1nnc(NC(=O)c2cccc3c(=O)n(C)c(-c4cccc(C(F)(F)F)c4)nc23)s1` [Compound 294], the “% Fold Act. (percent maximum fold activation)” value is “A (Fold activation>200%)” and the “EC1.5 μM” value is reported as “A (EC1.5<1.0 μM)”.

In the case of `Cc1cc(NC(=O)c2cccc3c(=O)n(C)c(-c4cccc(C(F)(F)F)c4)nc23)n(C)n1` [Compound 295], the “% Fold Act. (percent maximum fold activation)” value is reported as “B (Fold Activation<200%)” and the “EC1.5 μM” value is “C (EC1.5>25 μM)”.

`Cc1cc(NC(=O)c2cccc3c(=O)n(C)c(-c4cccc(C(F)(F)F)c4)nc23)sn1` [Compound 296]: the “% Fold Act. (percent maximum fold activation)” value was “B (Fold Activation<200%)” and the “EC1.5 μM” value is “B (EC1.5 1-25 μM)”.

For `Cn1c(-c2cccc(C(F)(F)F)c2)nc2c(C(=O)Nc3nnc(C(C)(C)C)s3)cccc2c1=O` [Compound 297], the “% Fold Act. (percent maximum fold activation)” value is “A (Fold activation>200%)” and the “EC1.5 μM” value is “A (EC1.5<1.0 μM)”.

`Cc1nc(NC(=O)c2cccc3c(=O)n(C)c(-c4cccc(C(F)(F)F)c4)nc23)sc1C` [Compound 298]: the “% Fold Act. (percent maximum fold activation)” value is reported as “A (Fold activation>200%)” and the “EC1.5 μM” value is given as “A (EC1.5<1.0 μM)”.

Consider `Cn1c(-c2cccc(C(F)(F)F)c2)nc2c(C(=O)Nc3nncs3)cccc2c1=O` [Compound 299], for which the “% Fold Act. (percent maximum fold activation)” value was “A (Fold activation>200%)” and the “EC1.5 μM” value is listed as “B (EC1.5 1-25 μM)”.

`Cn1c(-c2cccc(C(F)(F)F)c2)nc2c(C(=O)Nc3cncc(CN4CCOCC4)c3)cccc2c1=O` [Compound 300]: the “% Fold Act. (percent maximum fold activation)” value is “A (Fold activation>200%)” and the “EC1.5 μM” value is listed as “B (EC1.5 1-25 μM)”.

As for `Cn1c(-c2cccc(C(F)(F)F)c2)nc2c(C(=O)Nc3ccc(CN4CCOCC4)nc3)cccc2c1=O` [Compound 301], the “% Fold Act. (percent maximum fold activation)” value is “A (Fold activation>200%)” and the “EC1.5 μM” value is reported as “B (EC1.5 1-25 μM)”.

Take `Cn1c(-c2cccc(C(F)(F)F)c2)nc2c(C(=O)Nc3cccc(CN4CCOCC4)c3)cccc2c1=O` [Compound 302]: the “% Fold Act. (percent maximum fold activation)” value is listed as “A (Fold activation>200%)” and the “EC1.5 μM” value is listed as “A (EC1.5<1.0 μM)”.

Regarding `Cn1c(-c2cccc(C(F)(F)F)c2)nc2c(C(=O)Nc3ccncn3)cccc2c1=O` [Compound 303], the “% Fold Act. (percent maximum fold activation)” value is reported as “A (Fold activation>200%)” and the “EC1.5 μM” value is on record as “B (EC1.5 1-25 μM)”.

Regarding `Cn1c(-c2cccc(C(F)(F)F)c2)nc2c(C(=O)Nc3ccnc(N4CCOCC4)c3)cccc2c1=O` [Compound 304], the “% Fold Act. (percent maximum fold activation)” value is given as “A (Fold activation>200%)” and the “EC1.5 μM” value is “A (EC1.5<1.0 μM)”.

Turning to `Cn1cnc(NC(=O)c2cccc3c(=O)n(C)c(-c4cccc(C(F)(F)F)c4)nc23)n1` [Compound 305], the “% Fold Act. (percent maximum fold activation)” value is recorded as “A (Fold activation>200%)” and the “EC1.5 μM” value was “B (EC1.5 1-25 μM)”.

With `Cc1cc(C)nc(NC(=O)c2cccc3c(=O)n(C)c(-c4cccc(C(F)(F)F)c4)nc23)c1` [Compound 306], the “% Fold Act. (percent maximum fold activation)” value is given as “A (Fold activation>200%)” and the “EC1.5 μM” value is “A (EC1.5<1.0 μM)”.

`Cn1c(-c2cccc(C(F)(F)F)c2)nc2c(C(=O)Nc3ccnc(CN4CCOCC4)n3)cccc2c1=O` [Compound 307]: the “% Fold Act. (percent maximum fold activation)” value is on record as “A (Fold activation>200%)” and the “EC1.5 μM” value is recorded as “B (EC1.5 1-25 μM)”.

As for `Cn1c(-c2cccc(C(F)(F)F)c2)nc2c(C(=O)Nc3ncc(CN4CCOCC4)s3)cccc2c1=O` [Compound 308], the “% Fold Act. (percent maximum fold activation)” value is on record as “A (Fold activation>200%)” and the “EC1.5 μM” value is given as “B (EC1.5 1-25 μM)”.

For `Cn1c(-c2cccc(C(F)(F)F)c2)nc2c(C(=O)Nc3nc(CN4CCOCC4)cs3)cccc2c1=O` [Compound 309], the “% Fold Act. (percent maximum fold activation)” value was “A (Fold activation>200%)” and the “EC1.5 μM” value was “A (EC1.5<1.0 μM)”.

Take `Cn1c(-c2cccc(C(F)F)c2)nc2c(NC(=O)c3cnccn3)cccc2c1=O` [Compound 310]: the “% Fold Act. (percent maximum fold activation)” value was “A (Fold activation>200%)” and the “EC1.5 μM” value was “A (EC1.5<1.0 μM)”.

These data come from patent US9326986B2, “Quinazolinone, quinolone and related analogs as sirtuin modulators” (GLAXOSMITHKLINE LLC, priority 2008, dated 2016).
